Experimental findings from patent US8987249B2, “Substituted 2-Aza-bicyclo[2.2.1]heptane-3-carboxylic acid (benzyl-cyano-methyl)-amides inhibitors of Cathepsin C” (Boehringer Ingelheim International GmbH, priority 2013, dated 2015) are described below.

pIC50: −log10 of the molar value.

By pIC50 is commonly meant the negative decadic logarithm of the IC50, by convention in mol/L. The term half-life denotes the time in which the quantity being followed falls by half. The low end stands for rapid decline, the high end for slow decline.

Data set [1] has as its target recombinant human Cathepsin K (Homo sapiens (Human), UniProt P43235). The experiment in a line: Inhibition of human Cathepsin K. Type of data set: biochemical. Conditions: substrate Z-Gly-Pro-Arg-AMC. An outline of the steps: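 Fluorogenic Z-Gly-Pro-Arg-AMC cleavage, 60 min at room temperature, after a 10 min enzyme–compound preincubation (enzyme 2 ng/μL; compound 0.1 nM–100 μM; 1% DMSO). Buffer pH 5.5 with sodium acetate, EDTA and L-cysteine; procathepsin first activated 30 min at pH 3.5. E64 (1 μM) stop; IC50 derived from percent of vehicle signal minus background (Ex 360/Em 460 nm).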

Data set [2] can be described thus: Determination of metabolic stability with human liver microsomes. Conditions: pooled human liver microsomes; for half-life at 1 μM: human, pH 7.6. In general terms: Liver microsomes are a subcellular fraction often used to study metabolism.
Description: Determination of Metabolic Stability with Human Liver Microsomes
The metabolic degradation of the test compound is assayed at 37° C. with pooled human liver microsomes. The final incubation volume of 100 μl per time point contains TRIS buffer pH 7.6 (0.1 M), magnesium chloride (5 mM), microsomal protein (1 mg/ml) and the test compound at a final concentration of 1 μM. Following a short preincubation period at 37° C., the reactions are initiated by addition of beta-nicotinamide adenine dinucleotide phosphate, reduced form (NADPH, 1 mM) and terminated by transferring an aliquot into acetonitrile after different time points. Additionally, the NADPH-independent degradation is monitored in incubations without NADPH, terminated at the last time point. The [%] remaining test compound after NADPH independent incubation is reflected by the parameter c (control) (metabolic stability). The quenched incubations are pelleted by centrifugation (10,000 g, 5 min). An aliquot of the supernatant is assayed by LC-MS/MS for the amount of parent compound.
The half-life (t½ INVITRO) is determined by the slope of the semilogarithmic plot of the concentration-time profile.
In data set [3] the target is recombinant human DPPI (Cathepsin C) (Homo sapiens (Human), UniProt P53634). The experiment in a line: Inhibition of human DPPI (Cathepsin C). Type of data set: biochemical. Conditions: substrate Gly-Arg-AMC. The method in brief: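 Fluorescence read after 30 min room-temperature turnover of 50 μM (final) substrate by recombinant human cathepsin C, pH 6.0 MES/NaCl/DTT/BSA buffer, quenched by Gly-Phe-DMK (1 μM final). Activity as percent of vehicle after background subtraction, used for IC50.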
Chain of recombinant human DPPI (Cathepsin C) (P53634 231-394): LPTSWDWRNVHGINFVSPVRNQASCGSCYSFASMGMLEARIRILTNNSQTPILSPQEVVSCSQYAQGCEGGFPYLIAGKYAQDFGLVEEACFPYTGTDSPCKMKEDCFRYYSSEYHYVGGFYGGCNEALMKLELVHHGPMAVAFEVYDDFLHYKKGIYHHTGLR
Chain of recombinant human DPPI (Cathepsin C) (P53634 395-463): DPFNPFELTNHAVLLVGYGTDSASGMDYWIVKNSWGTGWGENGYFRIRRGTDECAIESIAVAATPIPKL
Chain of recombinant human DPPI (Cathepsin C) (P53634 25-134): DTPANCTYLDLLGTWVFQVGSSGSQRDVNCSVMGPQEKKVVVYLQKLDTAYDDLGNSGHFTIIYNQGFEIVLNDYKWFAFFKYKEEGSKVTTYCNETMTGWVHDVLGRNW

Chain of recombinant human Cathepsin K (P43235 115-329): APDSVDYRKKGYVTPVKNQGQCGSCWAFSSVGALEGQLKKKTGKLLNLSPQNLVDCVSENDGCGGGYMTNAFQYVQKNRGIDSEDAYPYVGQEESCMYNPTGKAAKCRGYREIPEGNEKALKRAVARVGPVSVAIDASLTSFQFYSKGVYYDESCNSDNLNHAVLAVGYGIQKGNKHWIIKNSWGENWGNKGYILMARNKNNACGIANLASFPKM

Consider `CN1CCC(c2ccc(C[C@@H](C#N)NC(=O)[C@H]3N[C@@H]4CC[C@H]3C4)c(F)c2)CC1` [Example 117], for which the pIC50 in data set [1] was 5.57; in data set [3] it was 7.40. Further, the half-life at 1 μM in data set [2] is > 2.17 h.
The like results for `CN1CCN(c2ccc(C[C@@H](C#N)NC(=O)[C@H]3N[C@@H]4CC[C@H]3C4)c(F)c2)CC1` [Example 6, (1S,2S,4R)—N-[(1S)-1-cyano-2-[2-fluoro-4-(4-methylpiperazin-1-yl)phenyl]ethyl]-3-azabicyclo[2.2.1]heptane-2-carboxamide] were, in that order, 5.60, 7.97 and > 2.17 h.
For the compound `N#C[C@H](Cc1ccc(-c2cc[nH]n2)cc1F)NC(=O)[C@H]1N[C@@H]2CC[C@H]1C2` [Example 114], the figures for the pIC50 in data set [1] and in data set [3] were 5.17 and 7.44, respectively. The half-life at 1 μM in data set [2] is > 2.17 h.
As to `CN(C)CC1CCCN(c2ccc(C[C@@H](C#N)NC(=O)[C@H]3N[C@@H]4CC[C@H]3C4)c(F)c2)C1` (stereo partly drawn) [Example 345], the pIC50 in data set [1] was 5.04; in data set [3], 7.74. Besides, the half-life at 1 μM in data set [2] is > 2.17 h.
The like results for `N#C[C@H](Cc1ccc(-c2ccc(C(=O)N3CCOCC3)o2)cc1F)NC(=O)[C@H]1N[C@@H]2CC[C@H]1C2` [Example 288] were, in that order, 5.66, 8.64 and > 2.17 h.
`CS(=O)(=O)N1CCN(c2ccc(C[C@@H](C#N)NC(=O)[C@H]3N[C@@H]4CC[C@H]3C4)c(F)c2)CC1` [Example 91]: the pIC50 in data set [1] is 5.60; in data set [3], 7.77. In addition, the half-life at 1 μM in data set [2] was > 2.17 h.
For `N#C[C@H](Cc1ccc(-c2ccc3c(c2)C(=O)NC3)cc1F)NC(=O)[C@H]1N[C@@H]2CC[C@H]1C2` [Example 95], in that order: 5.44, 7.72 and > 2.17 h.
`CC(C)N1CCCN(c2ccc(C[C@@H](C#N)NC(=O)[C@H]3N[C@@H]4CC[C@H]3C4)c(F)c2)CC1` [Example 267]: the pIC50 in data set [1] is 5.33; in data set [3], 7.98. The half-life at 1 μM in data set [2] is > 2.17 h.
As to `CN1CCN(C(=O)c2coc(-c3ccc(C[C@@H](C#N)NC(=O)[C@H]4N[C@@H]5CC[C@H]4C5)c(F)c3)c2)CC1` [Example 241], the pIC50 is 5.60 in data set [1] and 8.17 in data set [3]. The compound further displayed a half-life at 1 μM in data set [2] of 1.4 h.
For `CNc1nc2cc(-c3ccc(C[C@@H](C#N)NC(=O)[C@H]4N[C@@H]5CC[C@H]4C5)c(F)c3)ccc2n1C` [Example 253], in that order: 5.24, 7.96 and > 2.17 h.
Take `N#CC(Cc1ccc(-c2ccc3c(c2)CNC3=O)cc1F)NC(=O)[C@H]1N[C@@H]2CC[C@H]1C2` (stereo partly drawn) [Example 41]: the negative-log IC50 (pIC50) in data set [1] is 5.33; in data set [3], 8.28. In addition, in data set [2], the half-life at 1 μM was > 2.17 h.
For `N#C[C@H](Cc1ccc(-c2cccc(C(N)=O)c2)cc1F)NC(=O)[C@H]1N[C@@H]2CC[C@H]1C2` [Example 244], in that order: 5.70, 8.43 and 1.53 h.
The like results for `N#C[C@H](Cc1ccc(-c2cnn(C[C@H]3CCCO3)c2)cc1F)NC(=O)[C@H]1N[C@@H]2CC[C@H]1C2` [Example 260] were, in that order, 5.41, 8.46 and > 2.17 h.
For `CS(=O)(=O)c1ccc(-c2ccc(C[C@@H](C#N)NC(=O)[C@H]3N[C@@H]4CC[C@H]3C4)c(F)c2)c(F)c1` [Example 86], in that order: 5.17, 7.85 and > 2.17 h.
In the case of `CS(=O)(=O)c1ccc(-c2ccc(C[C@@H](C#N)NC(=O)[C@H]3N[C@@H]4CC[C@H]3C4)c(F)c2)cc1OCC(F)F` [Example 252], the pIC50 was 5.48 in data set [1] and 8.42 in data set [3]. In addition, the “In vitro stability in human liver microsome incubations t½” value in data set [2] (1 μM test compound, 37° C., NADPH) worked out at 2.17 h.
As to `N#C[C@H](Cc1ccc(-c2cnn(CC3CCOC3)c2)cc1F)NC(=O)[C@H]1N[C@@H]2CC[C@H]1C2` (stereo partly drawn) [Example 21], the pIC50 in data set [1] is 5.31; in data set [3], 8.51. Moreover, in data set [2], the half-life at 1 μM is > 2.17 h.
For `N#CC(Cc1cc2c(=O)[nH]c3ccc(F)cc3c2cc1F)NC(=O)[C@H]1N[C@@H]2CC[C@H]1C2` (stereo partly drawn) [Example 295], the pIC50 in data set [1] was 5.33; in data set [3] it was 8.68. In addition, the half-life at 1 μM in data set [2] was > 2.17 h.
The like results for `N#CC(Cc1ccc(-c2ncc(Cl)cn2)cc1F)NC(=O)[C@H]1N[C@@H]2CC[C@H]1C2` (stereo partly drawn) [Example 98] were, in that order, 5.08, 7.69 and > 2.17 h.
The like results for `N#Cc1ccc(-c2ccc(C[C@@H](C#N)NC(=O)[C@H]3N[C@H]4C[C@@H]3[C@@H]3C[C@@H]34)c(F)c2)cc1F` [Example 132] were, in that order, 4.91, 7.72 and > 2.17 h.
For `COCCN1C(=O)Cc2ccc(-c3ccc(C[C@@H](C#N)NC(=O)[C@H]4N[C@@H]5CC[C@H]4C5)c(F)c3)cc21` [Example 158], in that order: 5.03, 8.82 and > 2.17 h.
Take `CS(=O)(=O)Nc1ccc(-c2ccc(CC(C#N)NC(=O)[C@H]3N[C@@H]4CC[C@H]3C4)c(F)c2)cc1` (stereo partly drawn) [Example 62]: the pIC50 in data set [1] was 5.41; in data set [3], 8.04. Moreover, in data set [2], the half-life at 1 μM was > 2.17 h.
For `CN1C(=O)Cc2ccc(-c3ccc(C[C@@H](C#N)NC(=O)[C@H]4N[C@@H]5CC[C@H]4C5)c(F)c3)cc21` [Example 2, (1S,2S,4R)—N-[(1S)-1-cyano-2-[2-fluoro-4-(1-methyl-2-oxo-indolin-6-yl)phenyl]ethyl]-3-azabicyclo[2.2.1]heptane-2-carboxamide], in that order: 5.55, 8.70 and > 2.08 h.
For `CS(=O)(=O)c1ccc(-c2ccc(C[C@@H](C#N)NC(=O)[C@H]3N[C@@H]4CC[C@H]3C4)c(F)c2)cc1C#N` [Example 159], in that order: 5.48, 8.80 and > 2.17 h.
The like results for `N#Cc1ccc2[nH]c(=O)c3cc(CC(C#N)NC(=O)[C@H]4N[C@@H]5CC[C@H]4C5)ccc3c2c1` (stereo partly drawn) [Example 298] were, in that order, 4.75, 8.49 and 1.75 h.
`N#C[C@H](Cc1ccc(-c2cnn(CC3CCCCO3)c2)cc1F)NC(=O)[C@H]1N[C@@H]2CC[C@H]1C2` (stereo partly drawn) [Example 28]: the pIC50 in data set [1] was 5.57; in data set [3] it was 8.39. Also, the half-life at 1 μM in data set [2] is > 2.17 h.
Consider `CCn1nccc1-c1ccc(C[C@@H](C#N)NC(=O)[C@H]2N[C@@H]3CC[C@H]2C3)c(F)c1` [Example 110], for which the results for the pIC50 in data set [1] and in data set [3] were 5.01 and 7.54, respectively. Moreover, the half-life at 1 μM in data set [2] is > 2.17 h.
The like results for `N#C[C@H](Cc1ccc(-c2ccc3c(c2)CNC3=O)cc1F)NC(=O)[C@H]1N[C@H]2C[C@@H]1[C@@H]1C[C@@H]12` [Example 147] were, in that order, 5.01, 8.21 and > 2.17 h.
For `C[S+]([O-])c1ccc(-c2ccc(C[C@@H](C#N)NC(=O)[C@H]3N[C@@H]4CC[C@H]3C4)c(F)c2)cc1` (stereo partly drawn) [Example 274], in that order: 5.46, 8.19 and > 2.08 h.
For `N#C[C@H](Cc1ccc(N2CCN3CCOCC3C2)cc1F)NC(=O)[C@H]1N[C@@H]2CC[C@H]1C2` (stereo partly drawn) [Example 43], the pIC50 in data set [1] was 5.66; in data set [3], 8.25. Also, the half-life at 1 μM in data set [2] is > 2.17 h.
The like results for `COCc1cn(-c2ccc(C[C@@H](C#N)NC(=O)[C@H]3N[C@@H]4CC[C@H]3C4)c(F)c2)nn1` [Example 111] were, in that order, 5.37, 7.50 and > 2.17 h.
As for `N#C[C@H](Cc1ccc(-c2cnn(C[C@@H]3CCCO3)c2)cc1F)NC(=O)[C@H]1N[C@@H]2CC[C@H]1C2` [Example 261], the pIC50 in data set [1] was 5.42; in data set [3] it was 8.38. In addition, the half-life at 1 μM in data set [2] was > 2.17 h.
On to `CS(=O)(=O)c1ccc(-c2ccc(C[C@@H](C#N)NC(=O)[C@H]3N[C@@H]4CC[C@H]3C4)c(F)c2)cc1` [Example 16], for which the figures for the pIC50 in data set [1] and in data set [3] were 5.68 and 8.59, respectively. For the same compound, in data set [2], the half-life at 1 μM is > 2.17 h.
The like results for `CN1CCN(C(=O)c2cc(-c3ccc(C[C@@H](C#N)NC(=O)[C@H]4N[C@@H]5CC[C@H]4C5)c(F)c3)cs2)CC1=O` [Example 233] were, in that order, 5.52, 8.66 and > 2.17 h.
For `N#C[C@H](Cc1ccc(-c2cc(-c3ccccc3)no2)cc1F)NC(=O)[C@H]1N[C@@H]2CC[C@H]1C2` [Example 96], in that order: 5.26, 7.70 and 1.37 h.
The like results for `N#C[C@H](Cc1ccc(-c2ccc(=O)n(CC(F)F)c2)cc1F)NC(=O)[C@H]1N[C@@H]2CC[C@H]1C2` [Example 343] were, in that order, 5.28, 8.35 and > 2.17 h.
As to `COCCN1CCN(c2ccc(C[C@@H](C#N)NC(=O)[C@H]3N[C@@H]4CC[C@H]3C4)c(F)c2)CC1` [Example 182], the pIC50 was 5.46 in data set [1] and 8.06 in data set [3]. For the same compound, the half-life at 1 μM in data set [2] is > 2.17 h.
